In assay [1] the test system is cerebral cortical neural cells. As to the kind of experiment: Lactate dehydrogenase (LDH) cytotoxicity assay after oxygen-glucose deprivation. In kind it is cell-based, neonatal rat. As to conditions: 2 mM NaP, positive control; 24 hours after injury; vs untreated oxygen-glucose deprivation group, p<0.05. The protocol:
Culture of cerebral cortical neural cells: The brains of neonatal rats were dissected, the meninges removed, and the cerebral cortex isolated. The cortical tissues were digested with papain, single cells collected, and plated onto lysine-treated coverslips and cultured in Neurobasal™ serum-free medium. To mimic hypoxic-ischemic encephalopathy injury in vitro, the Neurobasal medium was replaced with DMEM medium at 7 days in vitro (DIV7), and cells were cultured under 21% O2/5% CO2 for 2.5 hours to serve as the control group, or Neurobasal medium replaced with glucose-free DMEM medium and cells cultured under 0% O2/5% CO2 for 2.5 hours to serve as the oxygen-glucose deprivation treatment group. After treatment, both groups were returned to Neurobasal medium and cultured normally under 21% O2/5% CO2 for 24 hours. […]
Lactate dehydrogenase (LDH) kit cytotoxicity assay: After 24 hours of normal culture, collect the cell culture supernatant from each group, add the LDH assay working solution, mix thoroughly, and incubate at room temperature in the dark for 30 minutes. Then, measure the absorbance at 490 nm and calculate the LDH release level, which indicates cytotoxicity. […]

Assay [2] has as its system cerebral cortical neural cells. As to the kind of experiment: MTT assay for cell viability after oxygen-glucose deprivation. Format: cell-based, neonatal rat. As to conditions: 2 mM NaP, positive control; 24 hours after injury; vs untreated oxygen-glucose deprivation group, p<0.05. The protocol: Culture of cerebral cortical neural cells: The brains of neonatal rats were dissected, the meninges removed, and the cerebral cortex isolated. The cortical tissues were digested with papain, single cells collected, and plated onto lysine-treated coverslips and cultured in Neurobasal™ serum-free medium. To mimic hypoxic-ischemic encephalopathy injury in vitro, the Neurobasal medium was replaced with DMEM medium at 7 days in vitro (DIV7), and cells were cultured under 21% O2/5% CO2 for 2.5 hours to serve as the control group, or Neurobasal medium replaced with glucose-free DMEM medium and cells cultured under 0% O2/5% CO2 for 2.5 hours to serve as the oxygen-glucose deprivation treatment group. After treatment, both groups were returned to Neurobasal medium and cultured normally under 21% O2/5% CO2 for 24 hours.
S1 Pretreatment: At the start of the oxygen-glucose deprivation treatment, cells were simultaneously treated with S1 (final concentrations of 0.01 μM, 0.1 μM, 1 μM, or 10 μM), or with the scrambled peptide Tat-NRRRNSKLQHKKY (SEQ ID NO: 10), or with NaP (Davunetide) as a control.
MTT assay for cell viability: After 24 hours of normal culture, MTT solution was added to each group and cultured for an additional 4 hours. […] Then, measure the absorbance at 490 nm and calculate the MTT formation level, which indicates cell viability. […]

This is an account of results in US20260337228A1, “COMPOSITION AND METHOD FOR TREATING NEONATAL HYPOXIC-ISCHEMIC ENCEPHALOPATHY” (SUZHOU GLENKOL PHARMA TECHNOLOGY CO., LTD., priority 2023, published 2026).

Consider `CC[C@H](C)[C@H](NC(=O)[C@H](CO)NC(=O)[C@@H](NC(=O)[C@@H]1CCCN1C(=O)[C@H](C)NC(=O)[C@@H](N)CC(N)=O)C(C)C)C(=O)N1CCC[C@H]1C(=O)N[C@@H](CCC(N)=O)C(=O)O` [NaP, Davunetide], for which the LDH release levels result in assay [1] is recorded as “significantly reduced LDH release levels”. The MTT formation levels result in assay [2] is “significantly increased MTT formation levels”.
